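Compound exposure: 48 hours, 5 concentrations, 96-well plates. GI50: concentration for 50% inhibition of growth. The concentration for full growth arrest is given as TGI.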
Tests used:
Test in all cases: DTP human tumour cell line panel, 48 h
ACHN renal = test system: ACHN renal
LOX IMVI melanoma = test system: LOX IMVI melanoma
UO-31 renal = test system: UO-31 renal
EKVX NSCLC = test system: EKVX NSCLC
SF-539 CNS = test system: SF-539 CNS
BT-549 breast = test system: BT-549 breast
NCI-H522 lung = test system: NCI-H522 lung
SN12C renal = test system: SN12C renal
SF-295 CNS = test system: SF-295 CNS
IGROV1 ovarian = test system: IGROV1 ovarian
T-47D breast = test system: T-47D breast
HCT-116 colon = test system: HCT-116 colon
SF-268 CNS = test system: SF-268 CNS
NCI-H23 lung = test system: NCI-H23 lung
SK-MEL-28 melanoma = test system: SK-MEL-28 melanoma
MDA-MB-468 breast = test system: MDA-MB-468 breast
OVCAR-4 ovarian = test system: OVCAR-4 ovarian
K-562 leukemia = test system: K-562 leukemia
SNB-19 CNS = test system: SNB-19 CNS
HOP-62 NSCLC = test system: HOP-62 NSCLC
NCI/ADR-RES ovarian = test system: NCI/ADR-RES ovarian
U251 CNS = test system: U251 CNS
A498 renal = test system: A498 renal
SK-MEL-5 melanoma = test system: SK-MEL-5 melanoma
MOLT-4 leukemia = test system: MOLT-4 leukemia
RXF 393 renal = test system: RXF 393 renal
PC-3 prostate = test system: PC-3 prostate
KM12 colon = test system: KM12 colon
OVCAR-3 ovarian = test system: OVCAR-3 ovarian

Which GI50 (ACHN renal) does the source give for `CCN(CC)CCOc1ccc(Nc2ncc3cc(-c4ccc(O)c(C#N)c4)c(=O)n(C)c3n2)cc1` here?
The GI50 was 49.3 µM.

What about the TGI (ACHN renal) of the same molecule?
The TGI was over 100 µM.

What about the GI50 (LOX IMVI melanoma) of the same molecule?
The GI50 was 22.6 µM.

What about the TGI (LOX IMVI melanoma) of the same molecule?
The TGI was over 100 µM.

And the GI50 (UO-31 renal)?
Its GI50 is over 100 µM.

What about the TGI (UO-31 renal) of the same molecule?
The TGI was over 100 µM.

And the GI50 (EKVX NSCLC)?
The GI50 was over 100 µM.

And the TGI (EKVX NSCLC)?
Its TGI is over 100 µM.

And the GI50 (SF-539 CNS)?
Its GI50 is 17.8 µM.

And the TGI (SF-539 CNS)?
Its TGI is 64.3 µM.

And the GI50 (BT-549 breast)?
Its GI50 is 24.8 µM.

And the TGI (BT-549 breast)?
Its TGI is 59.3 µM.

What about the GI50 (NCI-H522 lung) of the same molecule?
The GI50 was 17.4 µM.

And the TGI (NCI-H522 lung)?
The TGI was 35 µM.

And the GI50 (SN12C renal)?
The GI50 was 62.3 µM.

And the TGI (SN12C renal)?
The TGI was over 100 µM.

And the GI50 (SF-295 CNS)?
Its GI50 is over 100 µM.

What about the TGI (SF-295 CNS) of the same molecule?
Its TGI is over 100 µM.

And the GI50 (IGROV1 ovarian)?
Its GI50 is 68 µM.

What about the TGI (IGROV1 ovarian) of the same molecule?
Its TGI is over 100 µM.

And the GI50 (T-47D breast)?
Its GI50 is 15.6 µM.

And the TGI (T-47D breast)?
Its TGI is 38.9 µM.

And the GI50 (HCT-116 colon)?
The GI50 was 30.7 µM.

What about the TGI (HCT-116 colon) of the same molecule?
The TGI was over 100 µM.

And the GI50 (SF-268 CNS)?
The GI50 was 24 µM.

And the TGI (SF-268 CNS)?
The TGI was over 100 µM.

And the GI50 (NCI-H23 lung)?
Its GI50 is over 100 µM.

What about the TGI (NCI-H23 lung) of the same molecule?
Its TGI is over 100 µM.

And the GI50 (SK-MEL-28 melanoma)?
The GI50 was 17.2 µM.

And the TGI (SK-MEL-28 melanoma)?
The TGI was 31.5 µM.

What about the GI50 (MDA-MB-468 breast) of the same molecule?
Its GI50 is 15.6 µM.

What about the TGI (MDA-MB-468 breast) of the same molecule?
The TGI was 30.2 µM.

And the GI50 (OVCAR-4 ovarian)?
Its GI50 is over 100 µM.

And the TGI (OVCAR-4 ovarian)?
The TGI was over 100 µM.

And the GI50 (K-562 leukemia)?
Its GI50 is 5.45 µM.

And the TGI (K-562 leukemia)?
The TGI was over 100 µM.

What about the GI50 (SNB-19 CNS) of the same molecule?
Its GI50 is 25.8 µM.

What about the TGI (SNB-19 CNS) of the same molecule?
Its TGI is 57.3 µM.

And the GI50 (HOP-62 NSCLC)?
The GI50 was over 100 µM.

And the TGI (HOP-62 NSCLC)?
The TGI was over 100 µM.

What about the GI50 (NCI/ADR-RES ovarian) of the same molecule?
The GI50 was over 100 µM.

What about the TGI (NCI/ADR-RES ovarian) of the same molecule?
Its TGI is over 100 µM.

What about the GI50 (U251 CNS) of the same molecule?
The GI50 was 18.6 µM.

What about the TGI (U251 CNS) of the same molecule?
Its TGI is 35.6 µM.

What about the GI50 (A498 renal) of the same molecule?
Its GI50 is 62.6 µM.

And the TGI (A498 renal)?
The TGI was over 100 µM.

What about the GI50 (SK-MEL-5 melanoma) of the same molecule?
Its GI50 is 13.9 µM.

What about the TGI (SK-MEL-5 melanoma) of the same molecule?
Its TGI is 27.2 µM.

And the GI50 (MOLT-4 leukemia)?
Its GI50 is 17.4 µM.

What about the TGI (MOLT-4 leukemia) of the same molecule?
Its TGI is 66.4 µM.

What about the GI50 (RXF 393 renal) of the same molecule?
Its GI50 is 3.28 µM.

What about the TGI (RXF 393 renal) of the same molecule?
The TGI was 14.1 µM.

What about the GI50 (PC-3 prostate) of the same molecule?
The GI50 was over 100 µM.

And the TGI (PC-3 prostate)?
Its TGI is over 100 µM.

And the GI50 (KM12 colon)?
The GI50 was 28.3 µM.

What about the TGI (KM12 colon) of the same molecule?
Its TGI is over 100 µM.

What about the GI50 (OVCAR-3 ovarian) of the same molecule?
Its GI50 is over 100 µM.

And the TGI (OVCAR-3 ovarian)?
The TGI was over 100 µM.

Reference: PubChem BioAssay (NCI)
